Assay results from ChEMBL document CHEMBL5316299, “Discovery of Novel Drug-like PHGDH Inhibitors to Disrupt Serine Biosynthesis for Cancer Therapy” (J Med Chem, 2023).

Tests used:
MDA-MB-468 = test: Antiproliferative activity against human MDA-MB-468 cells expressing PHGDH assessed as reduction in cell viability measured for 72 hrs by CCK-8 assay; type: functional, cell-based; details: MDA-MB-468, 72 h
[1] = Microsomal stability in mouse liver microsomes assessed as intrinsic clearance measured upto 60 mins by HPLC-MS/MS analysis; type: ADME, Microsome; details: 1 h
[2] = Microsomal stability in mouse liver microsomes assessed as half life measured upto 60 mins by HPLC-MS/MS analysis; type: ADME, Microsome
[3] = Microsomal stability in rat liver microsomes assessed as intrinsic clearance measured upto 60 mins by HPLC-MS/MS analysis; type: ADME, Microsome; details: 1 h
[4] = Microsomal stability in rat liver microsomes assessed as half life measured upto 60 mins by HPLC-MS/MS analysis; type: ADME, Microsome
[5] = target: T1, D-3-phosphoglycerate dehydrogenase (Homo sapiens, UniProt O43175); test: Inhibition of PHGDH (unknown origin) preincubated for 30 mins followed by substrate addition and measured after 5 mins
T1 sequence (O43175 whole entry): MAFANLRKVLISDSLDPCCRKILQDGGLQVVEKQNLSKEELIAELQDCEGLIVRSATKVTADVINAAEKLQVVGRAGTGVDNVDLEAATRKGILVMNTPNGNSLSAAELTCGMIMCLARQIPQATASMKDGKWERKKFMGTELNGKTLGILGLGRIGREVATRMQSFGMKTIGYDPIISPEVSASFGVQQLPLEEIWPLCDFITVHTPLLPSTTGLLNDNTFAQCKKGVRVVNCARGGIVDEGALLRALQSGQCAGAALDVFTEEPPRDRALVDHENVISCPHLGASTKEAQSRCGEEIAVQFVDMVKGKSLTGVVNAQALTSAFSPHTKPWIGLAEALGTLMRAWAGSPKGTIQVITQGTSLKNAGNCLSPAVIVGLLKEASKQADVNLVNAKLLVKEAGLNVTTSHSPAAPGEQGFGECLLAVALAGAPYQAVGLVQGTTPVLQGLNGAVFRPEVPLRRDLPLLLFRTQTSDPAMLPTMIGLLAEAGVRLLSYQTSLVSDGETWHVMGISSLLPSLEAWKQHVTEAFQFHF

[6] = Microsomal stability in human liver microsomes assessed as half life measured upto 60 mins by HPLC-MS/MS analysis; type: ADME, Microsome
[7] = Microsomal stability in human liver microsomes assessed as intrinsic clearance measured upto 60 mins by HPLC-MS/MS analysis; type: ADME, Microsome; details: 1 h
MCF-10A = test: Antiproliferative activity against human MCF-10A cells assessed as reduction in cell viability measured for 72 hrs by CCK-8 assay; type: functional, cell-based
[8] = target: T1, D-3-phosphoglycerate dehydrogenase; test: Inhibition of wild type PHGDH (unknown origin) preincubated for 30 mins followed by substrate addition and measured after 5 mins
[9] = target: D-3-phosphoglycerate dehydrogenase (Homo sapiens, UniProt O43175, D175A); test: Inhibition of PHGDH D175A mutant (unknown origin) preincubated for 30 mins followed by substrate addition and measured after 5 mins
Sequence of D-3-phosphoglycerate dehydrogenase (Homo sapiens, UniProt O43175, D175A) (O43175 2-533 D175A limits assumed): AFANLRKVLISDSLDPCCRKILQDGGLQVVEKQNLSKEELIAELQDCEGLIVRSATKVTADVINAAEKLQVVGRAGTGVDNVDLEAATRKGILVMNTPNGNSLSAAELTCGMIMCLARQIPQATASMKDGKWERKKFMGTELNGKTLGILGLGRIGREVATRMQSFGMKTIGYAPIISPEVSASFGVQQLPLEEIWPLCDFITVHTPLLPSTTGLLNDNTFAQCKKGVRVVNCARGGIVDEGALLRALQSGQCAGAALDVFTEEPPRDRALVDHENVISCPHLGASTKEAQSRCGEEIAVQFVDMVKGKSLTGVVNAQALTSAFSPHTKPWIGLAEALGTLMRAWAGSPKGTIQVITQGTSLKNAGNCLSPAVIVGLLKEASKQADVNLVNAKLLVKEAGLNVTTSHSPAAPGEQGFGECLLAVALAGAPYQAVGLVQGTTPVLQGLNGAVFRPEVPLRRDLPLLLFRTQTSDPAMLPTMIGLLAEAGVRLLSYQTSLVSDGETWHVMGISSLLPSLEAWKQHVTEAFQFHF

| Compound | IC50 (MDA-MB-468) [nM] | CLH [1] [mL/min/g] | half-life [2] [min] | CLH [3] [mL/min/g] | half-life [4] [min] | IC50 [5] [nM] | half-life [6] [min] | CLH [7] [mL/min/g] | IC50 (MCF-10A) [nM] | IC50 [8] [nM] | IC50 [9] [nM] |
| --- | --- | --- | --- | --- | --- | --- | --- | --- | --- | --- | --- |
| CC(=O)c1cccc(NS(=O)(=O)c2ccc(C(=O)Nc3nc(-c4cccc(C)c4)cs3)cc2)c1 | 3000 | 835.6 | 2.5 | 2378.4 | 0.9 | 2400 | 1 | 1589.7 | 100000 |  |  |
| Cc1cc(Cl)c2cc(C(=O)N[C@H](CO)c3ccc(S(=O)(=O)CC(=O)O)cc3)n(C)c2c1 | > 100000 |  |  |  |  | 106 |  |  | > 100000 | 100 | > 3000 |
| COc1ccccc1-c1csc(NC(=O)c2ccc(S(=O)(=O)Nc3cccc(C(C)=O)c3)cc2)n1 | 5500 | 153 | 13.7 | 838.8 | 2.5 | 2200 | 26 | 82 | > 100000 |  |  |
